Patent US20260274892A1, “MACROCYCLIC BROAD SPECTRUM ANTIBIOTICS” (RQx Pharmaceuticals, Inc., priority 2017, published 2026)

What was measured:
[1] = test system: Methicillin Resistant Staphylococcus aureus strain USA 200; assay: Minimum inhibitory concentration (MIC), CLSI broth micro-dilution, S. aureus; type: cell-based; conditions: Staphylococcus aureus, MRSA / USA200; Table 6; MRSA USA 200; cation adjusted Mueller Hinton Broth + 0.002% Tween-80; 35° C., 22 hours
Description: In vitro antimicrobial activity of each compound was determined by measuring minimal inhibitor concentrations (MICs) using the broth micro-dilution technique as approved by the Clinical and Laboratory Standards Institute (CLSI) (Methods for Dilution Antimicrobial Susceptibility Tests for Bacteria that Grow Aerobically; Approved Standard-Eighth Edition. CLSI document M07-A8. Wayne, PA: Clinical and Laboratroy Standards; 2009). Antibacterial activity was measure against two strains of bacteria: a Methicillin Resistant Staphylococcus aureus strain USA 200, (S. aureus) and Escherichia coli ATCC 25922 (E. coli), a clinically relevant Gram-negative strain. Cells were inoculated onto plates of Trypyticase Soy Agar or Luria Agar respectively and grown at 35° C. for 20 hours. Inocula suspensions were prepared by scraping cells into 1 mL of testing media (cation adjusted Mueller Hinton Broth supplemented with 0.002% v/v Tween-80) and diluting to a final OD600nm of 0.01.
Test compounds were prepared in DMSO at a concentration of 10 mg/mL. In protocol 1, the compound stocks were diluted into testing media at a concentration of 64 µg/ml and serial 2-fold dilutions were made in the same media, in 96-well U bottom microtiter dishes, for a total of 10 compound concentrations. In protocol 2, the compound stocks were diluted into testing media at a concentration of 4 µg/mL and serial 2-fold dilutions were made in the same media, in 96-well U bottom microtiter dishes, for a total of 10 compound concentrations. In protocol 3, compound stocks were diluted into testing media at a concentration of 0.5 μg/mL, with serial 2-fold dilutions conducted as described above. In protocol 4, compound stocks were diluted into testing media at a concentration of […], with serial 2-fold dilutions conducted as described above. Inocula suspensions were added to the 2-fold serial dilutions of test compounds to a final density of GD OD600nm of 0.0005 and incubated at 35° C. for 22 hours.

[2] = test system: Escherichia coli ATCC 25922; assay: Minimum inhibitory concentration (MIC), CLSI broth micro-dilution, E. coli; type: cell-based; conditions: Escherichia coli, ATCC25922, 22 h
How it was run: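 Antibacterial potency is measured as MIC by the CLSI broth dilution method. Bacteria at OD600 0.0005 in Tween-80-supplemented cation-adjusted Mueller Hinton broth face ten twofold compound dilutions for 22 h at 35° C.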

[3] = Table 6, cation adjusted Mueller Hinton Broth + 0.002% Tween-80, 35° C.
[4] = Table 7, cation adjusted Mueller Hinton Broth + 0.002% Tween-80, 35° C.

SMILES	MIC [1] [µM]	MIC [2, 3] [µM]	MIC [2, 4] [µM]
CCCCc1ccc(-c2ccn(-c3ccc(C(=O)N[C@@H](CCN)C(=O)N(C)[C@@H]4C(=O)N[C@@H](C)C(=O)N[C@H](C(=O)NCC#N)Cc5ccc(OCCN)c(c5)-c5cc4ccc5OCCN)c(C)c3)n2)cc1 (racemic) [Compound 201, rac-(8S,11S,14S)-3,18-bis(2-aminoethoxy)-N-(cyanomethyl)-11-methyl-14-[methyl-[rac-(2S)-4-amino-2-[[4-[3-(4-butylphenyl)pyrazol-1-yl]-2-methyl-benzoyl]amino]butanoyl]amino]-10,13-dioxo-9,12-diazatricyclo[13.3.1.12,6]icosa-1(18),2(20),3,5,15(19),16-hexaene-8-carboxamide]	0.062	0.42	
Cc1cc(-c2ccc(S(F)(F)(F)(F)F)cc2)ccc1C(=O)N[C@@H](CCN)C(=O)N(C)[C@@H]1C(=O)N[C@@H](C)C(=O)N[C@H](C(=O)NCC#N)Cc2ccc(OCCN)c(c2)-c2cc1ccc2OCCN (racemic) [Compound 202, rac-(8S,11S,14S)-3,18-bis(2-aminoethoxy)-N-(cyanomethyl)-11-methyl-14-[methyl-[rac-(2S)-4-amino-2-[[2-methyl-4-[4-(pentafluoro-lambda6-sulfanyl)phenyl]benzoyl]amino]butanoyl]amino]-10,13-dioxo-9,12-diazatricyclo[13.3.1.12,6]icosa-1(18),2(20),3,5,15(19),16-hexaene-8-carboxamide]	0.023	0.37	
Cc1cc(-c2ccc(C(C)(C)C)cc2)ccc1C(=O)N[C@@H](CCN)C(=O)N(C)[C@@H]1C(=O)N[C@@H](C)C(=O)N[C@H](C(=O)NCC#N)Cc2ccc(OCCN)c(c2)-c2cc1ccc2OCCN (racemic) [Compound 203, rac-(8S,11S,14S)-3,18-bis(2-aminoethoxy)-N-(cyanomethyl)-11-methyl-14-[methyl-[rac-(2S)-4-amino-2-[[4-(4-tert-butylphenyl)-2-methyl-benzoyl]amino]butanoyl]amino]-10,13-dioxo-9,12-diazatricyclo[13.3.1.12,6]icosa-1(18),2(20),3,5,15(19),16-hexaene-8-carboxamide]	0.031	0.13	
CCCCCCc1ncc(-c2ccc(C(=O)N[C@@H](CCN)C(=O)N(C)[C@@H]3C(=O)N[C@@H](C)C(=O)N[C@H](C(=O)NCC#N)Cc4ccc(OCCN)c(c4)-c4cc3ccc4OCCN)c(C)c2)cn1 (racemic) [Compound 204, rac-(8S,11S,14S)-3,18-bis(2-aminoethoxy)-N-(cyanomethyl)-11-methyl-14-[methyl-[rac-(2S)-4-amino-2-[[4-(2-hexylpyrimidin-5-yl)-2-methyl-benzoyl]amino]butanoyl]amino]-10,13-dioxo-9,12-diazatricyclo[13.3.1.12,6]icosa-1(18),2(20),3,5,15(19),16-hexaene-8-carboxamide]	0.032	2.1	
CCCCCc1ccc(-c2ccc(C(=O)N[C@@H](CCN)C(=O)N(C)[C@@H]3C(=O)N[C@@H](C)C(=O)N[C@H](C(=O)NCC#N)Cc4ccc(OCCN)c(c4)-c4cc3ccc4OCCN)c(C)n2)cc1 (racemic) [Compound 205, rac-(8S,11S,14S)-3,18-bis(2-aminoethoxy)-N-(cyanomethyl)-11-methyl-14-[methyl-[rac-(2S)-4-amino-2-[[2-methyl-6-(4-pentylphenyl)pyridine-3-carbonyl]amino]butanoyl]amino]-10,13-dioxo-9,12-diazatricyclo[13.3.1.12,6]icosa-1(18),2(20),3,5,15(19),16-hexaene-8-carboxamide]	0.012	0.066	
Cc1nc(-c2ccc(OC3CCCCC3)cc2)nc(C)c1C(=O)N[C@@H](CCNC(=O)NO)C(=O)N(C)[C@@H]1C(=O)N[C@@H](C)C(=O)N[C@H](C(=O)NCC#N)Cc2ccc(OCCN)c(c2)-c2cc1ccc2OCCN [Compound 512, (8S,11S,14S)-3,18-bis(2-aminoethoxy)-N-(cyanomethyl)-14-[[(2S)-2-[[2-[4-(cyclohexoxy)phenyl]-4,6-dimethyl-pyrimidine-5-carbonyl]amino]-4-(hydroxycarbamoylamino)butanoyl]-methyl-amino]-11-methyl-10,13-dioxo-9,12-diazatricyclo[13.3.1.12,6]icosa-1(18),2(20),3,5,15(19),16-hexaene-8-carboxamide]		1	
CC(=O)Nc1cc2cc(c1O)-c1cc(ccc1OCCN)[C@H](N(C)C(=O)[C@H](CCN)NC(=O)c1c(C)nc(-c3ccc(C(C)(C)C)cc3)nc1C)C(=O)N[C@@H](C)C(=O)N[C@H](C(=O)NCC#N)C2 [Compound 559, (4S,7S,10S)-2^5-acetamido-10-((S)-4-amino-2-(2-(4-(tert-butyl)phenyl)-4,6-dimethylpyrimidine-5-carboxamido)-N-methylbutanamido)-1^6-(2-aminoethoxy)-N-(cyanomethyl)-2^6-hydroxy-7-methyl-6,9-dioxo-5,8-diaza-1,2(1,3)-dibenzenacyclodecaphane-4-carboxamide]			0.38

Further lines, results first:

MIC [1] [µM]	MIC [2, 3] [µM]	MIC [2, 4] [µM]	SMILES
		0.25	Cc1nc(-c2ccc(C(C)(C)C)cc2)nc(C)c1C(=O)N[C@@H](CCN)C(=O)N(C)[C@@H]1C(=O)N[C@@H](C)C(=O)N[C@H](C(=O)NCC#N)Cc2cc(F)c(O)c(c2)-c2cc1ccc2OCCN [Compound 560, (4S,7S,10S)-10-((S)-4-amino-2-(2-(4-(tert-butyl)phenyl)-4,6-dimethylpyrimidine-5-carboxamido)-N-methylbutanamido)-1^6-(2-aminoethoxy)-N-(cyanomethyl)-2^5-fluoro-2^6-hydroxy-7-methyl-6,9-dioxo-5,8-diaza-1,2(1,3)-dibenzenacyclodecaphane-4-carboxamide]
		0.17	Cc1nc(-c2ccc(C(C)(C)C)cc2)nc(C)c1C(=O)N[C@@H](CCN)C(=O)N(C)[C@@H]1C(=O)N[C@@H](C)C(=O)N[C@H](C(=O)NCC#N)Cc2ccc(OCCN)c(c2)-c2cc1cc(OCCN)c2O [Compound 583, (8S,11S,14S)-14-[[(2S)-4-amino-2-[[2-(4-tert-butylphenyl)-4,6-dimethyl-pyrimidine-5-carbonyl]amino]butanoyl]-methyl-amino]-3,17-bis(2-aminoethoxy)-N-(cyanomethyl)-18-hydroxy-11-methyl-10,13-dioxo-9,12-diazatricyclo[13.3.1.12,6]icosa-1(18),2(20),3,5,15(19),16-hexaene-8-carboxamide]
		0.25	COc1c(NCCN)cc2cc1-c1cc(ccc1O)C[C@@H](C(=O)NCC#N)NC(=O)[C@H](C)NC(=O)[C@H]2N(C)C(=O)[C@H](CCN)NC(=O)c1c(C)nc(-c2ccc(C(C)(C)C)cc2)nc1C [Compound 630, (8S,11S,14S)-14-[[(2S)-4-amino-2-[[2-(4-tert-butylphenyl)-4,6-dimethyl-pyrimidine-5-carbonyl]amino]butanoyl]-methyl-amino]-17-(2-aminoethylamino)-N-(cyanomethyl)-3-hydroxy-18-methoxy-11-methyl-10,13-dioxo-9,12-diazatricyclo[13.3.1.12,6]icosa-1(18),2(20),3,5,15(19),16-hexaene-8-carboxamide]
		0.5	Cc1nc(-c2ccc(C(C)(C)C)cc2)nc(C)c1C(=O)N[C@@H](CCN)C(=O)N(C)[C@@H]1C(=O)N[C@@H](C)C(=O)N[C@H](C(=O)NCC#N)Cc2ccc(O)c(c2)-c2cc1cc(OCCN)c2O [Compound 632, (8S,11S,14S)-14-[[(2S)-4-amino-2-[[2-(4-tert-butylphenyl)-4,6-dimethyl-pyrimidine-5-carbonyl]amino]butanoyl]-methyl-amino]-17-(2-aminoethoxy)-N-(cyanomethyl)-3,18-dihydroxy-11-methyl-10,13-dioxo-9,12-diazatricyclo[13.3.1.12,6]icosa-1(18),2(20),3,5,15(19),16-hexaene-8-carboxamide]
		0.047	Cc1nc(-c2ccc(C(C)(C)C)cc2)nc(C)c1C(=O)N[C@@H](CCN)C(=O)N(C)[C@@H]1C(=O)N[C@@H](C)C(=O)N[C@H](C(=O)NCC#N)Cc2ccc(O)c(c2)-c2cc1cc(OCCN)c2OCCN [Compound 633, (8S,11S,14S)-14-[[(2S)-4-amino-2-[[2-(4-tert-butylphenyl)-4,6-dimethyl-pyrimidine-5-carbonyl]amino]butanoyl]-methyl-amino]-17,18-bis(2-aminoethoxy)-N-(cyanomethyl)-3-hydroxy-11-methyl-10,13-dioxo-9,12-diazatricyclo[13.3.1.12,6]icosa-1(18),2(20),3,5,15(19),16-hexaene-8-carboxamide]
